Earlier results, collected in US20030220416A1, “Curable compositions with antimicrobial properties” (priority 1998, published 2003).
Read-outs that look alike come from different tables or passages of the source.

What was measured:
[1] = most of the compositions tested
[2] = system: bacteria; conditions: MDPB incorporated in experimental composites
[3] = system: S. mutans; conditions: MDPB incorporated in experimental composites

Compound	water solubility (distilled water at 20° C.) [ppm]	water solubility (distilled water at 50° C.) [ppm]	release of the triclosan into the surrounding medium [1] [micrograms/ml]	zone of inhibition by the disk diffusion method [2]	attachment of S. mutans to surfaces of the restorative material [3]
Oc1cc(Cl)ccc1Oc1ccc(Cl)cc1Cl [Triclosan, 2,4,4′-trichloro-2′hydroxydiphenyl ether]	20	20	0.02		
C=C(C)C(=O)OCCCCCCCCCCCC[n+]1ccccc1.[Br-] [MDPB, methacryloyloxydodecylpyridinium bromide]				no zone of inhibition was evident	reduced
